The record followed here is ChEMBL document CHEMBL1138984, “Identification of phosphodiesterase-1 and 5 dual inhibitors by a ligand-based virtual screening optimized for lead evolution” (Bioorg Med Chem Lett, 2006).

Test [1] has as its target T1, cGMP-specific 3',5'-cyclic phosphodiesterase (Homo sapiens, UniProt O76074). Kind of test: Inhibition of PDE5 at 10 uM. The arrangement: scale not given: the % may be the effect or the level left.
Test [2] deals with T2, Phosphodiesterase 1 (Homo sapiens, UniProt P54750+Q01064+Q14123). Kind of test: Inhibition of PDE1 at 10 uM. The arrangement: scale not given: the % may be the effect or the level left. It counts as protein assay.
The target in test [3] is T1, cGMP-specific 3',5'-cyclic phosphodiesterase. Description: Inhibition of PDE5.
Test [4] concerns the target T2, Phosphodiesterase 1. Description: Inhibition of PDE1. The class given is protein assay.

Consider `COc1ccc(-c2csc(-n3[nH]c(C)c(C(c4ccccc4)C(C#N)C(N)=O)c3=O)n2)cc1` (stereo not drawn), for which the values for the Activity in test [1] and in test [2] were 42% and 9%, respectively.

On to `N#CC1=C(N)OC2=C(C(=O)CCC2)C1c1ccc(OCC(=O)Nc2cccc(C(F)(F)F)c2)cc1` (stereo not drawn), for which the results for the Activity in test [1] and in test [2] were 52% and 9%, respectively.

In the case of `Cc1cc(C)nc(NS(=O)(=O)c2ccc(NC(=O)c3cccc(NC(=O)C(F)(F)F)c3)cc2)n1`, the Activity in test [1] stood at 44%; in test [2] it was 15%.

On to `Cc1cccc(NCc2n[nH]c(SCC(=O)Nc3cc([N+](=O)[O-])ccc3Cl)n2)c1`, for which the figures for the Activity in test [1] and in test [2] were 53% and 22%, respectively.

As to `Cc1oc(C(=O)N2CCCC2C(=O)O)cc1COc1ccc2oc3ccccc3c2c1` (stereo not drawn), the Activity stood at 48% in test [1] and 42% in test [2].

For `COc1ccc(-c2nc(NC(=O)CSCC(=O)O)sc2C)cc1`, the figures for the Activity in test [1] and in test [2] were 51% and 21%, respectively.

Consider `O=C(CSc1nnc(-c2ccccc2O)o1)NNC(=O)Cc1ccccc1`, for which the results for the Activity in test [1] and in test [2] were 1% and 22%, respectively.

For the compound `O=C(O)c1ccc(-c2ccc(-c3nc(O)c4c5c(sc4n3)CCCC5)o2)cc1`, the IC50 – broadly, the midpoint of a concentration-inhibition curve – amounted to 3100 nM in test [3] and 3700 nM in test [4].

On to `Cc1cc(C(=O)Nc2cccc(C(=O)O)c2)cc(S(=O)(=O)Nc2cccc(C(=O)O)c2)c1C`, for which the results for the Activity in test [1] and in test [2] were 19% and 49%, respectively.

Consider `COc1ccccc1Nc1nc(-c2sc(N)nc2C)cs1`, for which the IC50 in test [3] was determined as 3000 nM; in test [4], 2500 nM.

Take `N#Cc1c(C(F)(F)F)cc(-c2cccs2)nc1SCc1ccc(C(=O)O)cc1`: the IC50 in test [3] was 700 nM; in test [4] it was 1900 nM.

On to `Cc1ccc(-c2cc(C(=O)Nc3ccc(S(N)(=O)=O)cc3)c3ccccc3n2)s1`, for which the values for the IC50 in test [3] and in test [4] were 6300 nM and 2500 nM, respectively.

In the case of `COc1cc(/C=C2\SC(=S)N(CC(=O)O)C2=O)ccc1OC(=O)c1cccs1`, the Activity in test [1] was determined as 46%; in test [2] it was 59%.

On to `COc1cc(C2CC(=O)NC(SCC(=O)Nc3ccc(Br)cc3)=C2C#N)ccc1O` (stereo not drawn), for which the Activity in test [1] worked out at 23%; in test [2], 25%.

For the compound `N#Cc1c(N)nc(SCC(=O)Nc2ccc(F)cc2)c(C#N)c1-c1ccccc1`, the IC50 was found to be 1700 nM in test [3] and 5700 nM in test [4].

With `CCOc1ccc2nc(SCC(=O)NCc3ccc(C(=O)O)cc3)sc2c1`, the Activity turned out to be 39% in test [1] and 12% in test [2].

`Cn1c(=O)[nH]c(=O)c2c1nc(S)n2CC(O)COc1ccc2ccccc2c1` (stereo not drawn): the IC50 in test [3] worked out at 8700 nM; in test [4], 300 nM.

In the case of `NS(=O)(=O)c1ccc(-c2ccc(/C=C3/C(=O)NN(c4cccc(C(F)(F)F)c4)C3=O)o2)cc1`, the Activity is 66% in test [1] and 45% in test [2].

With `N#Cc1c(/N=C/c2ccc(-c3ccc(C(=O)O)cc3)o2)sc2c1CCCC2`, the results for the IC50 in test [3] and in test [4] were 2100 nM and 2500 nM, respectively.
